Experimental data published in ChEMBL document CHEMBL1201862, “PubChem BioAssay data set” (2004).
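Each compound was tested at five concentrations against cells in 96-well plates for 48 hours. GI50: concentration for 50% inhibition of growth.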 Active and inactive are the calls of the source. Cut-off read from the data, not from the text of the source: active = GI50 up to about 1.1 µM and inactive = higher.

What was measured:
Experiment in all cases: growth of human tumour cells (NCI), 48 h
LXFL 529 = tested on: LXFL 529
786-0 = tested on: 786-0
CAKI-1 = tested on: CAKI-1
OVCAR-8 = tested on: OVCAR-8
SN12C = tested on: SN12C
SK-MEL-2 = tested on: SK-MEL-2
NCI-H460 = tested on: NCI-H460
A549 = tested on: A549
OVCAR-4 = tested on: OVCAR-4
HT-29 = tested on: HT-29
CCRF-CEM = tested on: CCRF-CEM
RXF 393 = tested on: RXF 393
MOLT-4 = tested on: MOLT-4
KM12 = tested on: KM12
SF-539 = tested on: SF-539
T47D = tested on: T47D
MCF7 = tested on: MCF7
NCI/ADR-RES = tested on: NCI/ADR-RES
BT-549 = tested on: BT-549
MDA-MB-435 = tested on: MDA-MB-435

Row | Structure (SMILES) | GI50 (LXFL 529) | GI50 (786-0) | GI50 (CAKI-1) | GI50 (OVCAR-8) | GI50 (SN12C) | GI50 (SK-MEL-2) | GI50 (NCI-H460) | GI50 (A549) | GI50 (OVCAR-4) | GI50 (HT-29) | GI50 (CCRF-CEM) | GI50 (RXF 393) | GI50 (MOLT-4) | GI50 (KM12) | GI50 (SF-539) | GI50 (T47D) | GI50 (MCF7) | GI50 (NCI/ADR-RES) | GI50 (BT-549) | GI50 (MDA-MB-435)
1 | Cc1cccc2c1C(=O)OC2(c1cccc2ccccc12)c1cccc2ccccc12 | > 100 µM (inactive) | 52.8 µM (inactive) | > 100 µM (inactive) | 40.2 µM (inactive) | > 100 µM (inactive) | > 100 µM (inactive) | > 100 µM (inactive) | > 100 µM (inactive) | 89.9 µM (inactive) | > 100 µM (inactive) | > 100 µM (inactive) | 27.2 µM (inactive) | > 100 µM (inactive) | > 100 µM (inactive) |  |  |  |  |  | 
2 | C/C(=C1/N=C(c2cc([N+](=O)[O-])ccc2Cl)N(C2=CC=C(Cl)CC2)C1=O)c1cc2ccccc2oc1=O | 13.1 µM (inactive) |  | 32.7 µM (inactive) | 51.5 µM (inactive) | 23.4 µM (inactive) |  | 28 µM (inactive) | 27.9 µM (inactive) | 24.4 µM (inactive) | 63.4 µM (inactive) | 40.3 µM (inactive) |  | 54.6 µM (inactive) | 19.9 µM (inactive) | 10.7 µM (inactive) |  |  |  |  | 
3 | CCOC(=O)C12CC1(C(=O)OCC)C1CCC2C1 (configuration not stated) | > 100 µM (inactive) | > 100 µM (inactive) | > 100 µM (inactive) | > 100 µM (inactive) | > 100 µM (inactive) |  | > 100 µM (inactive) | > 100 µM (inactive) | > 100 µM (inactive) | > 100 µM (inactive) | > 100 µM (inactive) |  | 90.6 µM (inactive) |  |  |  |  |  |  | 
4 | CC(=O)CCC[C@H](C)[C@@H](O)[C@@H]1O[C@H]([C@@]2(C)CCC(=O)O2)C[C@H]1C(=O)O |  | > 100 µM (inactive) | > 100 µM (inactive) | > 100 µM (inactive) | > 100 µM (inactive) | > 100 µM (inactive) | > 100 µM (inactive) | > 100 µM (inactive) | > 100 µM (inactive) | > 100 µM (inactive) | > 100 µM (inactive) | > 100 µM (inactive) | > 100 µM (inactive) | > 100 µM (inactive) | > 100 µM (inactive) | > 100 µM (inactive) | > 100 µM (inactive) | > 100 µM (inactive) | 35.6 µM (inactive) | > 100 µM (inactive)
5 | O=C(N/C=C1\C(=O)Oc2ccccc2C1=O)Oc1ccccc1 |  | 23.7 µM (inactive) | 21.6 µM (inactive) | 25.8 µM (inactive) | 18.6 µM (inactive) | 14.5 µM (inactive) | 33.9 µM (inactive) | 32.5 µM (inactive) | 22.5 µM (inactive) | 40.8 µM (inactive) | 25 µM (inactive) | 8.59 µM (inactive) | 24.9 µM (inactive) | 35.6 µM (inactive) | 16 µM (inactive) | 22.4 µM (inactive) | 35.1 µM (inactive) | 27.4 µM (inactive) | 18.7 µM (inactive) | 20.1 µM (inactive)
6 | CC(C)c1cc2c(c(O)c1O)[C@@]1(C(=O)O)CCCC(C)(C)[C@@H]1CC2 [CARNOSIC ACID] |  | 31 µM (inactive) | 27.8 µM (inactive) | 15.3 µM (inactive) | 24 µM (inactive) | 18.9 µM (inactive) | 19.9 µM (inactive) | 18.2 µM (inactive) | 39.5 µM (inactive) | 16.3 µM (inactive) | 3.18 µM (inactive) | 19.6 µM (inactive) | 11.8 µM (inactive) | 14 µM (inactive) | 18.7 µM (inactive) | 18.4 µM (inactive) | 18.9 µM (inactive) | 15.6 µM (inactive) | 10.5 µM (inactive) | 16.3 µM (inactive)
7 | CC1=NOC(C)(O)/C1=N/O (configuration not stated) |  | > 100 µM (inactive) | > 100 µM (inactive) | > 100 µM (inactive) | > 100 µM (inactive) | > 100 µM (inactive) | > 100 µM (inactive) | > 100 µM (inactive) | > 100 µM (inactive) | > 100 µM (inactive) | > 100 µM (inactive) | > 100 µM (inactive) | > 100 µM (inactive) | > 100 µM (inactive) | > 100 µM (inactive) | > 100 µM (inactive) | > 100 µM (inactive) | > 100 µM (inactive) | > 100 µM (inactive) | > 100 µM (inactive)
8 | COc1cc(C2c3cc4c(cc3OC(NNc3ccccc3)C2C)OCO4)cc(OC)c1O (configuration not stated) |  | 3.18 µM (inactive) | 3.33 µM (inactive) | 1.52 µM (inactive) | 0.54 µM (active) | 0.724 µM (active) | 0.337 µM (active) | 1.41 µM (inactive) | 13.3 µM (inactive) | 1.23 µM (inactive) | 0.463 µM (active) | 1.92 µM (inactive) | 0.275 µM (active) | 0.251 µM (active) | 0.596 µM (active) | 0.757 µM (active) | 2.7 µM (inactive) | 1.07 µM (active) | 11.4 µM (inactive) | 0.204 µM (active)
9 | COc1ccc(/C(=N\NC(=O)NN)C(c2ccc(OC)cc2)C2(O)C(=O)Nc3c(Cl)cc(Cl)cc32)cc1 (configuration not stated) | > 100 µM (inactive) | 61.4 µM (inactive) |  | > 100 µM (inactive) | > 100 µM (inactive) | > 100 µM (inactive) | > 100 µM (inactive) | > 100 µM (inactive) | > 100 µM (inactive) | > 100 µM (inactive) | 13.8 µM (inactive) | > 100 µM (inactive) | 5.93 µM (inactive) | > 100 µM (inactive) |  |  |  |  |  | 
10 | Cc1c(C(=O)NNc2ccccc2)n2c(S)nnc2c2ccccc12 |  | > 100 µM (inactive) | > 100 µM (inactive) | > 100 µM (inactive) | > 100 µM (inactive) | > 100 µM (inactive) | > 100 µM (inactive) | > 100 µM (inactive) | > 100 µM (inactive) | > 100 µM (inactive) | > 100 µM (inactive) | 82.2 µM (inactive) | 83.2 µM (inactive) | > 100 µM (inactive) | > 100 µM (inactive) | 40.5 µM (inactive) | > 100 µM (inactive) | > 100 µM (inactive) | 97.3 µM (inactive) | > 100 µM (inactive)
11 | CCOC(=O)CCC(C(=O)OCC)n1nnc2ccc(Nc3c(C)[n+]([O-])c4cc(F)c(OCC)cc4[n+]3[O-])cc21 (configuration not stated) |  | > 100 µM (inactive) | 66.1 µM (inactive) | 94.4 µM (inactive) | 45.4 µM (inactive) | 32.3 µM (inactive) | 60.3 µM (inactive) | 77.8 µM (inactive) | 36.4 µM (inactive) | 56.8 µM (inactive) | 40 µM (inactive) | 41.8 µM (inactive) | 44.7 µM (inactive) | 80.4 µM (inactive) | 24.8 µM (inactive) | 30.2 µM (inactive) | 22.5 µM (inactive) | 87.7 µM (inactive) | 96.2 µM (inactive) | 42.9 µM (inactive)
12 | C/C(=N\Nc1ncnc2ccccc12)c1ccccn1 |  | < 0.0236 µM (active) | < 0.01 µM (active) | < 0.01 µM (active) | 0.026 µM (active) | 2.79 µM (inactive) | 0.0294 µM (active) | 0.0316 µM (active) | 10.7 µM (inactive) | 0.0182 µM (active) | < 0.01 µM (active) | 0.0371 µM (active) | < 0.0136 µM (active) | 0.0561 µM (active) | 0.0279 µM (active) | < 0.0185 µM (active) | 0.0138 µM (active) | < 0.0168 µM (active) | 0.587 µM (active) | 0.195 µM (active)
